Test results reported in paper PMC8228174, “In Vitro Characterization of Guanylyl Cyclase BdPepR2 from Brachypodium distachyon Identified through a Motif-Based Approach” (International Journal of Molecular Sciences, 2021).

B1: BdPepR2 (Brachypodium distachyon) (protein)
chain: MPGRLSAKRVSLRSLDSTEELPEDMTYEDILRATDNWSEKYVIGKGRHGTVYRTDCKLGKQWAVKTVDLSQCKFPIEMKILNTVKHRNIVRMAGYYIRGNVGLILYEYMPEGTLFELLHERKPQVALGWMARHQIALGVAQGLSYLHQDCVPMIVHRDVKSSNILMDVELVPKLTDFGMGKIVGDEDSDATVSVIVGTLGYIAPEHGYSTRLSEKSDVYSYGVVLLELLCRKMPVDSAFGDGVDIVTWMRSNLKQADHCSVMSCLDEEIVYWPEDEQAKALHLLDLAISCTEVACQLRPSMREVVNVLVRMDK
notes: full length 1146 aa; pGEX-6P-2, E. coli BL21(DE3)pLysS; GST tag cut off with PreScission protease

Legend:
[1] = biological target: T1, BdPepR2 (Brachypodium distachyon, UniProt A0A2K2CYK2); assay: Kinase-Glo plus luminescent kinase assay; assay type: biochemical; details: 1 µM cGMP suppresses kinase activity; 100 μM ATP, Histone Type III-S, 5 mM MgCl2 and 5 mM MnCl2, 1 mM DTT, 25 mM Tris/HCl pH 7.5, 30 °C; extent only in figure
T1 construct: gene LOC100834510; full length 1146 aa; pGEX-6P-2, E. coli BL21(DE3)pLysS; GST tag cut off with PreScission protease

[2] = biological target: T2, BdPepR2 (Brachypodium distachyon, UniProt A0A2K2CYK2, M1083A); assay: Kinase-Glo plus luminescent kinase assay; assay type: biochemical; details: 1 µM cGMP suppresses kinase activity; 100 μM ATP, Histone Type III-S, 5 mM MgCl2 and 5 mM MnCl2, 1 mM DTT, 25 mM Tris/HCl pH 7.5, 30 °C; extent only in figure
T2 construct: gene LOC100834510; full length 1146 aa; pGEX-6P-2, E. coli BL21(DE3)pLysS; GST tag cut off with PreScission protease

[3] = biological target: T1, BdPepR2; assay: Kinase-Glo plus luminescent kinase assay; assay type: biochemical; details: 1 µM cGMP suppresses kinase activity; 100 μM ATP, Histone Type III-S, 5 mM MgCl2 and 5 mM MnCl2, 1 mM DTT, 25 mM Tris/HCl pH 7.5, 30 °C; extent only in figure; remark: listed apart in the source
Target sequence in this assay (A0A2K2CYK2 entry or part of it M1083R): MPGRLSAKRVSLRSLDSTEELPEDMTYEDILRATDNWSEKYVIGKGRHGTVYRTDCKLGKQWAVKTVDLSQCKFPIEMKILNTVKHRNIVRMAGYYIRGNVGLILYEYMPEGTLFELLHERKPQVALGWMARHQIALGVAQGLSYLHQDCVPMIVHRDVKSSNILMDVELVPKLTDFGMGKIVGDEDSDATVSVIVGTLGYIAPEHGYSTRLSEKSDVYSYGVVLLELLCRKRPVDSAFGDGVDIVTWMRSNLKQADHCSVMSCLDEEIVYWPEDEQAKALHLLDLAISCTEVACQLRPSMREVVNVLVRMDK

[4] = substrate: Nc1nc2c(ncn2[C@@H]2O[C@H](COP(=O)(O)OP(=O)(O)OP(=O)(O)O)[C@@H](O)[C@H]2O)c(=O)[nH]1; assay: guanylyl cyclase assay, cGMP by LC-MS/MS; assay type: biochemical, Brachypodium distachyon; details: 5 mM MnCl2, 50 mM Tris/HCl pH 7.5, 30 °C, 15 min, GTP 0.5-2 mM, GC centre

T2 sequence (A0A2K2CYK2 entry or part of it M1083A): as the sequence (A0A2K2CYK2 entry or part of it M1083R) above, with R233A counted along it

Molecule | Kinase-Glo plus luminescent kinase assay [1] | Kinase-Glo plus luminescent kinase assay [2] | Kinase-Glo plus luminescent kinase assay [3] | Km [4] [mM]
Nc1nc2c(ncn2[C@@H]2O[C@@H]3COP(=O)(O)O[C@H]3[C@H]2O)c(=O)[nH]1 [cGMP] | only the product of GC activity, cGMP, statistically significantly suppress kinase activity of BdPepR2 | kinase activity of BdPepR2, BdPepR2M1066A, and BdPepR2M1066R is suppressed by GTP and cGMP | kinase activity of BdPepR2, BdPepR2M1066A, and BdPepR2M1066R is suppressed by GTP and cGMP | –
B1 | – | – | – | 1.189
